Test results published in PubChem BioAssay AID248 (DTP/NCI, 2004).
Values joined by “and” are separate entries in the source; they are usually repeats but may differ in a detail not shown here. Identical values can stand only once. Toxic doses and inconclusive results are not listed. No stated cut-off is given here; in the data, active means T/C of 150% or more; inactive means T/C below 125%.

Tested on: L1210 leukemia ip in BDF1 mice, survival T/C
Assay: NCI In Vivo Anticancer Drug Screen. Data for tumor model L1210 Leukemia (intraperitoneal) in B6D2F1 (BDF1) mice
Settings: endpoint: mean survival time, higher = longer survival
Procedure, shortened: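 Tumor cells were implanted, animals were treated, and survival was followed. The result divides the treated measurement by the vehicle-control measurement.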

[1] = dose: 75.0 mg/kg/injection, schedule: Q01DX001 (ip), vehicle: saline
[2] = dose: 150.0 mg/kg/injection, schedule: Q01DX001 (ip), vehicle: saline
[3] = dose: 100.0 mg/kg/injection, schedule: Q04DX003 (ip), vehicle: saline
[4] = dose: 200.0 mg/kg/injection, schedule: Q04DX003 (ip), vehicle: saline
[5] = dose: 100.0 mg/kg/injection, schedule: Q04DX003 (ip), vehicle: saline with Tween-80
[6] = dose: 200.0 mg/kg/injection, schedule: Q04DX003 (ip), vehicle: saline with Tween-80
[7] = dose: 400.0 mg/kg/injection, schedule: Q04DX003 (ip), vehicle: saline with Tween-80
[8] = dose: 100.0 mg/kg/injection, schedule: Q01DX009 (ip), vehicle: saline with Tween-80
[9] = dose: 100.0 mg/kg/injection, schedule: Q01DX009 (ip), vehicle: saline
[10] = dose: 200.0 mg/kg/injection, schedule: Q01DX009 (ip), vehicle: saline
[11] = dose: 400.0 mg/kg/injection, schedule: Q01DX009 (ip), vehicle: saline
[12] = dose: 400.0 mg/kg/injection, schedule: Q04DX003 (ip), vehicle: saline

Measured: T/C

C#CCOCCC(C(=O)O)C(=O)O
inactive: dose: 100.0 mg/kg/injection, schedule: Q01DX009 (ip), vehicle: acetone 90 % of control | dose: 100.0 mg/kg/injection, schedule: Q04DX003 (ip), vehicle: acetone 101 % of control | dose: 200.0 mg/kg/injection, schedule: Q01DX009 (ip), vehicle: acetone 97 % of control | dose: 200.0 mg/kg/injection, schedule: Q04DX003 (ip), vehicle: acetone 101 % of control | dose: 400.0 mg/kg/injection, schedule: Q04DX003 (ip), vehicle: acetone 92 % of control

COc1ccc(CC#N)cc1
inactive: dose: 2.5 mg/kg/injection, schedule: Q04DX002 (ip), vehicle: Klucel (hydroxypropylcellulose) (HPC) 103 % of control | dose: 5.0 mg/kg/injection, schedule: Q01DX009 (ip), vehicle: Klucel (hydroxypropylcellulose) (HPC) 91 % of control | dose: 5.0 mg/kg/injection, schedule: Q04DX002 (ip), vehicle: Klucel (hydroxypropylcellulose) (HPC) 98 % of control | dose: 10.0 mg/kg/injection, schedule: Q01DX009 (ip), vehicle: Klucel (hydroxypropylcellulose) (HPC) 89 % of control | dose: 10.0 mg/kg/injection, schedule: Q04DX002 (ip), vehicle: Klucel (hydroxypropylcellulose) (HPC) 98 % of control and 110 % of control | dose: 20.0 mg/kg/injection, schedule: Q01DX009 (ip), vehicle: Klucel (hydroxypropylcellulose) (HPC) 92 % of control

O=C(C=C(C(F)(F)F)C(F)(F)F)c1ccc(Br)cc1
inactive: dose: 25.0 mg/kg/injection, schedule: Q04DX003 (ip), vehicle: other 88 % of control | dose: 50.0 mg/kg/injection, schedule: Q04DX003 (ip), vehicle: other 94 % of control

CCCCCCNCCC[P+](c1ccccc1)(c1ccccc1)c1ccccc1
inactive: dose: 12.5 mg/kg/injection, schedule: Q04DX002 (ip), vehicle: saline 91 % of control | dose: 25.0 mg/kg/injection, schedule: Q04DX002 (ip), vehicle: saline 98 % of control | dose: 50.0 mg/kg/injection, schedule: Q04DX002 (ip), vehicle: saline 98 % of control

Cc1cc(N(CCOS(C)(=O)=O)CCOS(C)(=O)=O)ccc1N=O
inactive: dose: 62.5 micrograms/kg/injection, schedule: Q01DX010 (ip), vehicle: saline 121 % of control

O=[N+]([O-])c1ccc(S(=O)[O-])cc1.O=[N+]([O-])c1ccc(S(=O)[O-])cc1.[Zn+2]
inactive: [1] 102 % of control | [2] 110 % of control

Cc1ccc(C(=O)CCN2CCOCC2)cc1C
inactive: [3] 93 % of control | [4] 91 % of control

ClCC1(CCl)COC(c2ccccc2)OC1
inactive: [5] 95 % of control | [6] 93 % of control | [7] 92 % of control

Oc1cccc(-c2cccc(OCCCCCCCCCCBr)c2)c1
inactive: dose: 12.5 mg/kg/injection, schedule: Q01DX009 (ip), vehicle: DMSO 108 % of control | dose: 25.0 mg/kg/injection, schedule: Q01DX009 (ip), vehicle: DMSO 94 % of control | dose: 100.0 mg/kg/injection, schedule: Q04DX003 (ip), vehicle: DMSO 92 % of control | dose: 200.0 mg/kg/injection, schedule: Q04DX003 (ip), vehicle: DMSO 91 % of control

CCCCC=C(C)C
inactive: dose: 50.0 mg/kg/injection, schedule: Q01DX001 (ip), vehicle: carboxymethylcellulose (CMC) 106 % of control | dose: 100.0 mg/kg/injection, schedule: Q01DX001 (ip), vehicle: carboxymethylcellulose (CMC) 93 % of control | dose: 200.0 mg/kg/injection, schedule: Q01DX001 (ip), vehicle: carboxymethylcellulose (CMC) 104 % of control | dose: 400.0 mg/kg/injection, schedule: Q01DX001 (ip), vehicle: carboxymethylcellulose (CMC) 104 % of control

CC(=O)NC(CCSCc1c2ccccc2c(C)c2ccccc12)C(=O)O (stereo not given)
inactive: dose: 50.0 mg/kg/injection, schedule: Q01DX009 (ip), vehicle: saline with Tween-80 86 % of control | [8] 98 % of control | [5] 95 % of control | [6] 95 % of control

CCCCCCCCCCCCc1ccc(CS)cc1
inactive: [9] 98 % of control | [3] 92 % of control | [10] 101 % of control | [4] 91 % of control | [11] 101 % of control | [12] 93 % of control

COc1ccc(OC)c(/C=C2\SC(=S)N(C3OC(COC(C)=O)C(OC(C)=O)C(OC(C)=O)C3OC(C)=O)C2=O)c1 (stereo not given)
inactive: dose: 25.0 mg/kg/injection, schedule: Q01DX005 (ip), vehicle: other 101 % of control | dose: 50.0 mg/kg/injection, schedule: Q01DX005 (ip), vehicle: other 108 % of control | dose: 100.0 mg/kg/injection, schedule: Q01DX005 (ip), vehicle: other 101 % of control | dose: 200.0 mg/kg/injection, schedule: Q01DX005 (ip), vehicle: other 97 % of control | dose: 400.0 mg/kg/injection, schedule: Q01DX005 (ip), vehicle: other 104 % of control

O=C(Nc1ccc(Cl)cc1)OCCN(CCOC(=O)Nc1ccc(Cl)cc1)Cc1ccccc1
inactive: dose: 100.0 mg/kg/injection, schedule: Q01DX001 (ip), vehicle: saline 101 % of control | dose: 200.0 mg/kg/injection, schedule: Q01DX001 (ip), vehicle: saline 95 % of control | dose: 400.0 mg/kg/injection, schedule: Q01DX001 (ip), vehicle: saline 95 % of control

CNC(=O)Nc1cccc([N+](=O)[O-])c1OC
inactive: dose: 100.0 mg/kg/injection, schedule: Q04DX002 (ip), vehicle: Klucel (hydroxypropylcellulose) (HPC) 100 % of control | dose: 200.0 mg/kg/injection, schedule: Q04DX002 (ip), vehicle: Klucel (hydroxypropylcellulose) (HPC) 103 % of control | dose: 400.0 mg/kg/injection, schedule: Q04DX002 (ip), vehicle: Klucel (hydroxypropylcellulose) (HPC) 106 % of control

O=C(O)Cc1sc(=O)[nH]c1O
inactive: [9] 96 % of control | [3] 102 % of control | [10] 96 % of control | [4] 96 % of control | [11] 99 % of control | [12] 106 % of control

CC(C)(C)C([NH-])=O.CC(C)(C)C([NH-])=O.[Cl][Pt+2][Cl]
inactive: dose: 6.25 mg/kg/injection, schedule: Q01DX009 (ip), vehicle: saline 86 % of control | dose: 12.5 mg/kg/injection, schedule: Q01DX009 (ip), vehicle: saline 94 % of control | dose: 12.5 mg/kg/injection, schedule: Q04DX003 (ip), vehicle: saline 116 % of control | dose: 25.0 mg/kg/injection, schedule: Q01DX009 (ip), vehicle: saline 101 % of control | dose: 25.0 mg/kg/injection, schedule: Q04DX003 (ip), vehicle: saline 102 % of control | dose: 50.0 mg/kg/injection, schedule: Q04DX003 (ip), vehicle: saline 109 % of control

O=C(Nc1ccccn1)c1ccccc1
inactive: dose: 100.0 mg/kg/injection, schedule: Q04DX002 (ip), vehicle: saline with Tween-80 99 % of control

COc1ccc(/C=C2\NC(=O)NC2=O)cc1Br
inactive: dose: 100.0 mg/kg/injection, schedule: Q01DX009 (ip), vehicle: Klucel (hydroxypropylcellulose) (HPC) 93 % of control | dose: 200.0 mg/kg/injection, schedule: Q01DX009 (ip), vehicle: Klucel (hydroxypropylcellulose) (HPC) 96 % of control | dose: 400.0 mg/kg/injection, schedule: Q01DX009 (ip), vehicle: Klucel (hydroxypropylcellulose) (HPC) 91 % of control

CC1(Cc2ccccc2)CCC(=O)O1 (stereo not given)
inactive: [8] 98 % of control | [5] 98 % of control | dose: 200.0 mg/kg/injection, schedule: Q01DX009 (ip), vehicle: saline with Tween-80 100 % of control | [6] 96 % of control | dose: 400.0 mg/kg/injection, schedule: Q01DX009 (ip), vehicle: saline with Tween-80 87 % of control | [7] 104 % of control

CCOc1c(C(=O)O)cnc2ccccc12
inactive: [1] 100 % of control

CNC(=Nc1ccc(NC(=O)c2ccc(C(=O)Nc3ccc(N=C(NC)c4ccccc4)cc3)cc2)cc1)c1ccccc1
inactive: dose: 3.75 mg/kg/injection, schedule: Q01DX Z (ip), vehicle: saline 106 % of control | dose: 7.5 mg/kg/injection, schedule: Q01DX Z (ip), vehicle: saline 100 % of control | dose: 15.0 mg/kg/injection, schedule: Q01DX Z (ip), vehicle: other 91 % of control | dose: 15.0 mg/kg/injection, schedule: Q01DX Z (ip), vehicle: saline 105 % of control

Cc1cccc(Cl)c1N=Nc1sc(N)nc1C
inactive: [1] 105 % of control | [2] 105 % of control

CCOC(=O)c1c[nH]c(C)c1C
inactive: dose: 100.0 mg/kg/injection, schedule: Q04DX003 (ip), vehicle: Klucel (hydroxypropylcellulose) (HPC) 104 % of control | dose: 200.0 mg/kg/injection, schedule: Q04DX003 (ip), vehicle: Klucel (hydroxypropylcellulose) (HPC) 109 % of control | dose: 400.0 mg/kg/injection, schedule: Q04DX003 (ip), vehicle: Klucel (hydroxypropylcellulose) (HPC) 105 % of control
